Test results reported in ChEMBL document CHEMBL1135920, “Synthesis and in vitro antitumor activity of new deaza analogues of the nonpolyglutamatable antifolate N(alpha)-(4-amino-4-deoxypteroyl)-N(delta)-hemiphthaloyl-L-ornithine (PT523)” (J Med Chem, 2002).
pIC50, pKi: −log10 of the molar value.

Experiments:
Dihydrofolate reductase = biological target: T1, Dihydrofolate reductase (Homo sapiens, UniProt P00374); test: Inhibitory activity against human recombinant Dihydrofolate reductase
T1 sequence (P00374 whole entry): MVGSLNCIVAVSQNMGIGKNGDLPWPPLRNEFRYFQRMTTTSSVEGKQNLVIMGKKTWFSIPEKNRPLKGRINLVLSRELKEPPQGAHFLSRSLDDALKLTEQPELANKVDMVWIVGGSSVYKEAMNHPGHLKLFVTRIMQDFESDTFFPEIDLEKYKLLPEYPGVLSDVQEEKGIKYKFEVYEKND

CCRF-CEM = test: Inhibition the growth of CCRF-CEM human leukemic lymphoblasts in culture during 72 hr of continuous drug exposure; format: functional, cell-based

| Compound | pIC50 (CCRF-CEM) | pKi (Dihydrofolate reductase) |
| --- | --- | --- |
| Nc1cc(N)c2nc(CCc3ccc(C(=O)NC(CCCNC(=O)c4ccccc4C(=O)O)C(=O)O)cc3)cnc2c1 (centres undefined) | 9.28 | 12.46 |
| Nc1cc(N)c2cc(CCc3ccc(C(=O)NC(CCCNC(=O)c4ccccc4C(=O)O)C(=O)O)cc3)ccc2c1 (centres undefined) | 9.16 | 12.68 |
| Nc1nc(N)c2cc(CNc3ccc(C(=O)NC(CCCNC(=O)c4ccccc4C(=O)O)C(=O)O)cc3)ccc2n1 (centres undefined) | 9.19 |  |

Now from value to compound, other results behind:

| pIC50 (CCRF-CEM) | Compound | pKi (Dihydrofolate reductase) |
| --- | --- | --- |
| 8.92 | CCC(Cc1cnc2nc(N)nc(N)c2n1)c1ccc(C(=O)NC(CCCNC(=O)c2ccccc2C(=O)O)C(=O)O)cc1 (centres undefined) | 12.21 |
| 8.89 | C#CCC(Cc1cnc2nc(N)nc(N)c2n1)c1ccc(C(=O)NC(CCCNC(=O)c2ccccc2C(=O)O)C(=O)O)cc1 (centres undefined) | 12.22 |
